Laboratory results: PMC8445441, “Elucidating the mechanism by which synthetic helper peptides sensitize Pseudomonas aeruginosa to multiple antibiotics” (PLoS Pathogens, 2021)
Several values for one entry are separate records, joined by “and”; a condition that tells them apart may be missing. Equal values may be shown once. Read-outs that look alike come from different tables or passages of the source. Each block holds one compound with its values, some of them ahead of it.

Legend:
P. aeruginosa AUMC-Pa-3 = test: microbe, parasite or virus in culture; conditions: strain AUMC-Pa-3; for FICI: antibiotic + D-11 (MICb/MICbc 128/4); for MICa: MIC of the antibiotic: antibiotic alone; for MICa: MIC of the antibiotic / MICac: MIC of the antibiotic in the combination: unit not given; for MICac: MIC of the antibiotic in the combination: with D-11 at MICbc 4
How it was run: (§1)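 MICs were determined by CLSI broth microdilution in MHB, in triplicate: two-fold drug dilutions were mixed 1:1 with bacterial suspension of ~1 × 10^6 CFU/mL and incubated 18 h at 37 °C. The MIC was the lowest concentration with no visible growth.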

P. aeruginosa PAO1 = test: microbe, parasite or virus in culture; conditions: for MIC: Pseudomonas aeruginosa
How it was run: as §1

P. aeruginosa AUMC-Pa-5 = test: microbe, parasite or virus in culture; conditions: strain AUMC-Pa-5; for FICI: antibiotic + D-11 (MICb/MICbc 64/4); for MICa: MIC of the antibiotic: antibiotic alone; for MICa: MIC of the antibiotic / MICac: MIC of the antibiotic in the combination: unit not given; for MICac: MIC of the antibiotic in the combination: with D-11 at MICbc 4
How it was run: as §1

P. aeruginosa AUMC-Pa-6 = test: microbe, parasite or virus in culture; conditions: strain AUMC-Pa-6; for FICI: antibiotic + D-11 (MICb/MICbc 64/4); for MICa: MIC of the antibiotic: antibiotic alone; for MICa: MIC of the antibiotic / MICac: MIC of the antibiotic in the combination: unit not given; for MICac: MIC of the antibiotic in the combination: with D-11 at MICbc 4
How it was run: as §1

P. aeruginosa AUMC-Pa-4 = test: microbe, parasite or virus in culture; conditions: strain AUMC-Pa-4; for FICI: antibiotic + D-11 (MICb/MICbc 128/4); for MICa: MIC of the antibiotic: antibiotic alone; for MICa: MIC of the antibiotic / MICac: MIC of the antibiotic in the combination: unit not given; for MICac: MIC of the antibiotic in the combination: with D-11 at MICbc 4
How it was run: as §1

P. aeruginosa HM-214 = conditions: strain HM-214; antibiotic + D-11 (MICb/MICbc 128/4)
How it was run: as §1

P. aeruginosa AUMC-Pa-1 = conditions: strain AUMC-Pa-1; antibiotic + D-11 (MICb/MICbc 128/4)
How it was run: as §1

P. aeruginosa AUMC-Pa-2 = conditions: strain AUMC-Pa-2; antibiotic + D-11 (MICb/MICbc 64/4)
How it was run: as §1

[1] = test system: clinical P. aeruginosa isolates; test: microbe, parasite or virus in culture; conditions: Pseudomonas aeruginosa, 18 h, antibiotic alone
How it was run: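 Broth microdilution per CLSI in MHB, two-fold drug dilutions mixed with an equal volume of bacteria at about 1 × 10^6 CFU/mL. After 18 h at 37 °C, MIC taken as the lowest concentration with no visible growth; run in triplicate.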

P. aeruginosa NR-31041 = test: microbe, parasite or virus in culture; set-up: MICa: MIC of the antibiotic / MICac: MIC of the antibiotic in the combination: unit not given beside the values; conditions: strain NR-31041; for FICI: antibiotic + D-11 (MICb/MICbc 64/4); for MICa: MIC of the antibiotic: antibiotic alone; for MICa: MIC of the antibiotic / MICac: MIC of the antibiotic in the combination: unit not given; for MICac: MIC of the antibiotic in the combination: with D-11 at MICbc 4
How it was run: as §1

P. aeruginosa PAK = test: microbe, parasite or virus in culture; set-up: MICa: MIC of the antibiotic / MICac: MIC of the antibiotic in the combination: unit not given beside the values; conditions: strain PAK; for FICI: antibiotic + D-11 (MICb/MICbc 64/4); for MICa: MIC of the antibiotic: antibiotic alone; for MICa: MIC of the antibiotic / MICac: MIC of the antibiotic in the combination: unit not given; for MICac: MIC of the antibiotic in the combination: with D-11 at MICbc 4
How it was run: as §1

P. aeruginosa NR-31040 = test: microbe, parasite or virus in culture; set-up: MICa: MIC of the antibiotic / MICac: MIC of the antibiotic in the combination: unit not given beside the values; conditions: strain NR-31040; for FICI: antibiotic + D-11 (MICb/MICbc 128/4); for MICa: MIC of the antibiotic: antibiotic alone; for MICa: MIC of the antibiotic / MICac: MIC of the antibiotic in the combination: unit not given; for MICac: MIC of the antibiotic in the combination: with D-11 at MICbc 4
How it was run: as §1

P. aeruginosa ATCC27853 = test: microbe, parasite or virus in culture; set-up: MICa: MIC of the antibiotic / MICac: MIC of the antibiotic in the combination: unit not given beside the values; conditions: strain ATCC27853; for FICI: antibiotic + D-11 (MICb/MICbc 32/4)
How it was run: as §1

P. aeruginosa PA14 = test: microbe, parasite or virus in culture; set-up: MICa: MIC of the antibiotic / MICac: MIC of the antibiotic in the combination: unit not given beside the values; conditions: strain PA14; for FICI: antibiotic + D-11 (MICb/MICbc 128/4); for MICa: MIC of the antibiotic: antibiotic alone; for MICa: MIC of the antibiotic / MICac: MIC of the antibiotic in the combination: unit not given; for MICac: MIC of the antibiotic in the combination: with D-11 at MICbc 4
How it was run: as §1

[2] = read-out: Antibiotic sensibility (MIC) of clinical P. aeruginosa isolate AUMC-Pa-1, strain AUMC-Pa-1
[3] = read-out: Antibiotic sensibility (MIC) of clinical P. aeruginosa isolate AUMC-Pa-2, strain AUMC-Pa-2
[4] = read-out: Antibiotic sensibility (MIC) of clinical P. aeruginosa isolate AUMC-Pa-3, strain AUMC-Pa-3
[5] = read-out: Antibiotic sensibility (MIC) of clinical P. aeruginosa isolate AUMC-Pa-4, strain AUMC-Pa-4
[6] = read-out: Antibiotic sensibility (MIC) of clinical P. aeruginosa isolate AUMC-Pa-5, strain AUMC-Pa-5
[7] = read-out: Antibiotic sensibility (MIC) of clinical P. aeruginosa isolate AUMC-Pa-6, strain AUMC-Pa-6
[8] = read-out: Antibiotic sensibility (MIC) of clinical P. aeruginosa isolate HM-214, strain HM-214
[9] = read-out: Antibiotic sensibility (MIC) of clinical P. aeruginosa isolate NR-31040, strain NR-31040
[10] = read-out: Antibiotic sensibility (MIC) of clinical P. aeruginosa isolate NR-31041, strain NR-31041

- MICa: MIC of the antibiotic (P. aeruginosa AUMC-Pa-3): 128
- MICac: MIC of the antibiotic in the combination (P. aeruginosa AUMC-Pa-3): 8
- MIC (P. aeruginosa PAO1; PAO1, read-out: MIC for azithromycin, azithromycin alone, PAO1): 128 µM
- MIC (P. aeruginosa PAO1; PAO1, read-out: MIC of AZM, initial bacterial density 10^3 CFU/mL): 64 µM
- MIC (P. aeruginosa PAO1; PAO1, read-out: MIC of AZM, initial bacterial density 10^4 CFU/mL): 64 µM
- MIC (P. aeruginosa PAO1; PAO1, read-out: MIC of AZM, initial bacterial density 10^5 CFU/mL): 128 µM
- MIC (P. aeruginosa PAO1; PAO1, read-out: MIC of AZM, initial bacterial density 10^6 CFU/mL): 128 µM
- MICa: the MIC of antibiotics (P. aeruginosa PAO1; S1 Table, macrolide alone, PAO1): 128 µM
- MICa: the MIC of azithromycin (P. aeruginosa PAO1; azithromycin alone, PAO1, broth microdilution in MHB, 18 h, 37 °C, triplicate): 128/128 μM and 128 μM
- MICa: MIC of the antibiotic (P. aeruginosa AUMC-Pa-5): 128
- MICac: MIC of the antibiotic in the combination (P. aeruginosa AUMC-Pa-5): 32
- MICa: MIC of the antibiotic (P. aeruginosa AUMC-Pa-6): 128
- MICac: MIC of the antibiotic in the combination (P. aeruginosa AUMC-Pa-6): 32
- MICa: MIC of the antibiotic (P. aeruginosa AUMC-Pa-4): 128
- MICac: MIC of the antibiotic in the combination (P. aeruginosa AUMC-Pa-4): 32
- MIC [1, 2]: 128 µM
- MIC [1, 3]: 128 µM
- MIC [1, 4]: 128 µM
- MIC [1, 5]: 128 µM
- MIC [1, 6]: 128 µM
- MIC [1, 7]: 128 µM
- MIC [1, 8]: 128 µM
- MIC [1, 9]: 128 µM
- MIC [1, 10]: 128 µM
- MICa: MIC of the antibiotic (P. aeruginosa NR-31041): 128
- MICac: MIC of the antibiotic in the combination (P. aeruginosa NR-31041): 16
- MICa: MIC of the antibiotic (P. aeruginosa PAK): 128
- MICac: MIC of the antibiotic in the combination (P. aeruginosa PAK): 16
- MICa: MIC of the antibiotic (P. aeruginosa NR-31040): 128
- MICac: MIC of the antibiotic in the combination (P. aeruginosa NR-31040): 32
- MICa: MIC of the antibiotic (P. aeruginosa ATCC27853; antibiotic alone, unit not given): 128
- MICac: MIC of the antibiotic in the combination (P. aeruginosa ATCC27853; with D-11 at MICbc 4, unit not given): 4
- MICa: MIC of the antibiotic (P. aeruginosa PA14): 128
- MICac: MIC of the antibiotic in the combination (P. aeruginosa PA14): 32
Structure (SMILES): CC[C@H]1OC(=O)[C@H](C)[C@@H](O[C@H]2C[C@@](C)(OC)[C@@H](O)[C@H](C)O2)[C@H](C)[C@@H](O[C@@H]2O[C@H](C)C[C@H](N(C)C)[C@H]2O)[C@](C)(O)C[C@@H](C)CN(C)[C@H](C)[C@@H](O)[C@]1(C)O [Azithromycin]
- FICI (P. aeruginosa AUMC-Pa-3): 0.094
- FICI (P. aeruginosa AUMC-Pa-5): 0.313
- FICI (P. aeruginosa AUMC-Pa-6): 0.313
- FICI (P. aeruginosa AUMC-Pa-4): 0.281
- FICI (P. aeruginosa HM-214): 0.281
- FICI (P. aeruginosa AUMC-Pa-1): 0.094
- FICI (P. aeruginosa AUMC-Pa-2): 0.313
- FICI (P. aeruginosa NR-31041): 0.188
- FICI (P. aeruginosa PAK): 0.188
- FICI (P. aeruginosa NR-31040): 0.281
- FICI (P. aeruginosa ATCC27853): 0.156
- FICI (P. aeruginosa PA14): 0.281

- MICa: MIC of the antibiotic (P. aeruginosa AUMC-Pa-3): 128
- MICac: MIC of the antibiotic in the combination (P. aeruginosa AUMC-Pa-3): 4
- MICac: the MIC for the antibiotic in the combination (P. aeruginosa PAO1; S3 Table, PAO1, with 2 μM D-11): 4 µM
- MICac: the MIC for the antibiotic in the combination (P. aeruginosa PAO1; S3 Table, PAO1, with 4 μM D-11): 4 µM
- MICa: the MIC of antibiotics (P. aeruginosa PAO1; S3 Table, antibiotic alone, PAO1): 128 µM
- MICa: MIC of the antibiotic (P. aeruginosa AUMC-Pa-5): 128
- MICac: MIC of the antibiotic in the combination (P. aeruginosa AUMC-Pa-5): 16
- MICa: MIC of the antibiotic (P. aeruginosa AUMC-Pa-6): 128
- MICac: MIC of the antibiotic in the combination (P. aeruginosa AUMC-Pa-6): 4
- MICa: MIC of the antibiotic (P. aeruginosa AUMC-Pa-4): 128
- MICac: MIC of the antibiotic in the combination (P. aeruginosa AUMC-Pa-4): 4
- MIC [1, 2]: > 128 µM
- MIC [1, 3]: 128 µM
- MIC [1, 4]: 128 µM
- MIC [1, 5]: 128 µM
- MIC [1, 6]: 128 µM
- MIC [1, 7]: 128 µM
- MIC [1, 8]: 128 µM
- MIC [1, 9]: 128 µM
- MIC [1, 10]: 128 µM
- MICa: MIC of the antibiotic (P. aeruginosa NR-31041): 128
- MICac: MIC of the antibiotic in the combination (P. aeruginosa NR-31041): 4
- MICa: MIC of the antibiotic (P. aeruginosa PAK): 128
- MICac: MIC of the antibiotic in the combination (P. aeruginosa PAK): 4
- MICa: MIC of the antibiotic (P. aeruginosa NR-31040): 128
- MICac: MIC of the antibiotic in the combination (P. aeruginosa NR-31040): 4
- MICa: MIC of the antibiotic (P. aeruginosa PA14): 128
- MICac: MIC of the antibiotic in the combination (P. aeruginosa PA14): 4
Structure (SMILES): O=C(N[C@H](CO)[C@H](O)c1ccc([N+](=O)[O-])cc1)C(Cl)Cl [Chloramphenicol]
- FICI (P. aeruginosa AUMC-Pa-3): 0.063
- FICI (P. aeruginosa PAO1; S3 Table, PAO1, antibiotic + 2 μM D-11): 0.094
- FICI (P. aeruginosa PAO1; S3 Table, PAO1, antibiotic + 4 μM D-11): 0.156
- FICI (P. aeruginosa AUMC-Pa-5): 0.188
- FICI (P. aeruginosa AUMC-Pa-6): 0.094
- FICI (P. aeruginosa AUMC-Pa-4): 0.063
- FICI (P. aeruginosa HM-214): 0.063
- FICI (P. aeruginosa AUMC-Pa-1): 0.047
- FICI (P. aeruginosa AUMC-Pa-2): 0.094
- FICI (P. aeruginosa NR-31041): 0.094
- FICI (P. aeruginosa PAK): 0.094
- FICI (P. aeruginosa NR-31040): 0.063
- FICI (P. aeruginosa ATCC27853): 0.141
- FICI (P. aeruginosa PA14): 0.063
